Assay results: article PMC3302206 (Biochemistry, 2012)
Values after ≈ are worked out from the molar mass of the structure shown. Ends that are not written are not given here.

Assays:
[1] = tested on: wild type S. aureus Rosenbach strain; assay type: cell-based, Staphylococcus aureus; details: 16 h
wild type S. aureus = assay type: cell-based, Staphylococcus aureus
E. coli DC2 = assay type: cell-based, Escherichia coli; details: DC2, 16 h
S. aureus mprF mutant [2] = assay type: cell-based, Staphylococcus aureus; details: for MBC, S. aureus mprF mutant, −C: absence of carbonate; for MBC, S. aureus mprF mutant, +C: carbonate present
S. aureus mprF mutant [3] = assay type: cell-based, Staphylococcus aureus; details: for MIC, S. aureus mprF mutant, −C: absence of carbonate; for MIC, S. aureus mprF mutant, +C: physiological concentration of carbonate present
[4] = tested on: Staphylococcus aureus UAMS-1; assay type: cell-based; details: clinical isolate
E. coli K12 = assay type: cell-based, Escherichia coli; details: wild type strain; broth microdilution, measured as described (ref 18 protocol)

Row | Molecule | MIC, WT S. aureus, +C [1] [µM] | MIC, WT S. aureus, −C [1] [µM] | MBC, WT S. aureus, +C (wild type S. aureus) [µM] | MBC, WT S. aureus, −C (wild type S. aureus) [µM] | MIC, E. coli DC2 (E. coli DC2) [µM] | MBC, S. aureus mprF mutant, −C (S. aureus mprF mutant [2]) [µM] | MBC, S. aureus mprF mutant, +C (S. aureus mprF mutant [2]) [µM] | MIC, S. aureus mprF mutant, −C (S. aureus mprF mutant [3]) [µM] | MIC, S. aureus mprF mutant, +C (S. aureus mprF mutant [3]) [µM] | MIC, Staphylococcus aureus UAMS-1 [4] [µM] | MIC, E. coli K12 (E. coli K12) [µM]
1 | LLGDFFRKAKEKIGKEFKRIVQR [LL-23A9] | >24 | >24 | >24 | >24 | 9 | 6 to 12 | 6 | 6 | 0.35 to 0.7 |  | 
2 | CC[C@H](C)[C@H](NC(=O)[C@H](CCCCN)NC(=O)[C@H](CCC(=O)O)NC(=O)[C@H](CCCCN)NC(=O)[C@@H](NC(=O)[C@H](CCCCN)NC(=O)[C@H](CCCNC(=N)N)NC(=O)[C@H](Cc1ccccc1)NC(=O)[C@H](Cc1ccccc1)NC(=O)[C@H](CC(=O)O)NC(=O)CNC(=O)[C@H](CC(C)C)NC(=O)[C@@H](N)CC(C)C)C(C)C)C(=O)NCC(=O)N[C@@H](CCCCN)C(=O)N[C@@H](CCC(=O)O)C(=O)N[C@@H](Cc1ccccc1)C(=O)N[C@@H](CCCCN)C(=O)N[C@@H](CCCNC(=N)N)C(=O)N[C@H](C(=O)N[C@H](C(=O)N[C@@H](CCC(N)=O)C(=O)N[C@@H](CCCNC(=N)N)C(=O)N[C@H](C(=O)N[C@@H](CCCCN)C(=O)N[C@@H](CC(=O)O)C(=O)N[C@@H](Cc1ccccc1)C(=O)N[C@@H](CC(C)C)C(=O)N[C@@H](CCCNC(=N)N)C(=O)N[C@@H](CC(N)=O)C(=O)N[C@@H](CC(C)C)C(=O)N[C@H](C(=O)N1CCC[C@H]1C(=O)N[C@@H](CCCNC(=N)N)C(=O)N[C@H](C(=O)N[C@@H](CCC(=O)O)C(=O)N[C@@H](CO)C(=O)O)[C@@H](C)O)C(C)C)[C@@H](C)CC)C(C)C)[C@@H](C)CC [LL-37V9] |  |  |  |  | 12 (≈ 54.1 µg/mL) |  |  |  |  |  | 
3 | LLGDFFRKSKEKIGKEFKRIVQR [LL-23] | >24 | >24 | >24 | >24 | 9 | >24 | 12 | 24 | 3 | > 160 | 
4 | CC[C@H](C)[C@H](NC(=O)[C@H](CCCCN)NC(=O)[C@H](CCC(=O)O)NC(=O)[C@H](CCCCN)NC(=O)[C@H](C)NC(=O)[C@H](CCCCN)NC(=O)[C@H](CCCNC(=N)N)NC(=O)[C@H](Cc1ccccc1)NC(=O)[C@H](Cc1ccccc1)NC(=O)[C@H](CC(=O)O)NC(=O)CNC(=O)[C@H](CC(C)C)NC(=O)[C@@H](N)CC(C)C)C(=O)NCC(=O)N[C@@H](CCCCN)C(=O)N[C@@H](CCC(=O)O)C(=O)N[C@@H](Cc1ccccc1)C(=O)N[C@@H](CCCCN)C(=O)N[C@@H](CCCNC(=N)N)C(=O)N[C@H](C(=O)N[C@H](C(=O)N[C@@H](CCC(N)=O)C(=O)N[C@@H](CCCNC(=N)N)C(=O)N[C@H](C(=O)N[C@@H](CCCCN)C(=O)N[C@@H](CC(=O)O)C(=O)N[C@@H](Cc1ccccc1)C(=O)N[C@@H](CC(C)C)C(=O)N[C@@H](CCCNC(=N)N)C(=O)N[C@@H](CC(N)=O)C(=O)N[C@@H](CC(C)C)C(=O)N[C@H](C(=O)N1CCC[C@H]1C(=O)N[C@@H](CCCNC(=N)N)C(=O)N[C@H](C(=O)N[C@@H](CCC(=O)O)C(=O)N[C@@H](CO)C(=O)O)[C@@H](C)O)C(C)C)[C@@H](C)CC)C(C)C)[C@@H](C)CC [LL-37A9] |  |  |  |  | 6 (≈ 26.9 µg/mL) |  |  |  |  |  | 
5 | CC[C@H](C)[C@H](NC(=O)[C@H](CCCCN)NC(=O)[C@H](CCC(=O)O)NC(=O)[C@H](CCCCN)NC(=O)[C@H](CO)NC(=O)[C@H](CCCCN)NC(=O)[C@H](CCCNC(=N)N)NC(=O)[C@H](Cc1ccccc1)NC(=O)[C@H](Cc1ccccc1)NC(=O)[C@H](CC(=O)O)NC(=O)CNC(=O)[C@H](CC(C)C)NC(=O)[C@@H](N)CC(C)C)C(=O)NCC(=O)N[C@@H](CCCCN)C(=O)N[C@@H](CCC(=O)O)C(=O)N[C@@H](Cc1ccccc1)C(=O)N[C@@H](CCCCN)C(=O)N[C@@H](CCCNC(=N)N)C(=O)N[C@H](C(=O)N[C@H](C(=O)N[C@@H](CCC(N)=O)C(=O)N[C@@H](CCCNC(=N)N)C(=O)N[C@H](C(=O)N[C@@H](CCCCN)C(=O)N[C@@H](CC(=O)O)C(=O)N[C@@H](Cc1ccccc1)C(=O)N[C@@H](CC(C)C)C(=O)N[C@@H](CCCNC(=N)N)C(=O)N[C@@H](CC(N)=O)C(=O)N[C@@H](CC(C)C)C(=O)N[C@H](C(=O)N1CCC[C@H]1C(=O)N[C@@H](CCCNC(=N)N)C(=O)N[C@H](C(=O)N[C@@H](CCC(=O)O)C(=O)N[C@@H](CO)C(=O)O)[C@@H](C)O)C(C)C)[C@@H](C)CC)C(C)C)[C@@H](C)CC [LL-37] |  |  |  |  |  |  |  |  |  |  | 5 (≈ 22.5 µg/mL)
6 | LLGDFFRKVKEKIGKEFKRIVQR [LL-23V9] | 12 | >24 | >24 | >24 | 2 | 3 to 6 | 6 to 12 | 6 | 0.35 to 0.7 |  | 
